# Experimental data published in patent US20250241884A1, “Pharmaceutical Compositions of D10-Docosahexaenoic Acid or Esters Thereof” (BioJiva LLC, priority 2022, published 2025).
# Entries after “also recorded” stand apart in the source; their conditions may differ.
# Assays:
# [1] = tested on: adult male wild-type C57BL/6J mice; assay: Protection against geographic atrophy after intravitreal ferric ammonium citrate in mice fed D-DHA; type: in vivo; settings: for protection against geographic atrophy: intravitreal ferric ammonium citrate
# From the text: In this example, two cohorts of adult male wild-type C57BL/6J mice (Jackson Labs) were used. Both cohorts were fed identical feed containing 0.25% or 0.5% D-DHA or matching amounts of DHA as controls. After 4 weeks, the mice were given an intravitreal injection of 1 microliter of 0.5 millimolar ferric ammonium citrate diluted in 0.9% saline (test) or 1 microliter of 0.9% saline (control). Mice were then continued on their respective diets for 4 weeks after injection in order to evaluate whether D-DHA could protect against geographic atrophy which is related to AMD.
# [2] = Predicted steady-state D-DHA substitution and plasma decline without dosing in patients, calculated from Table 2 / FIG. 1; parameters: species or system human; settings: for D-DHA substitution rate at steady-state (% of total DHA): DHA in human diet 130 mg/day
# From the text: In contrast to controlled experimental diets, naturally occurring DHA is consumed by patients treated with D-DHA which can dilute the relative percentage of administered D-DHA absorbed with the total DHA pool and its final concentration at steady state in blood and eventually in the target tissue such as retina. The data and standard curves referred to above allow for the determination of retinal steady-state active D-DHA concentrations with reasonable accuracy by calculating the D-DHA/total DHA ratio in plasma and/or red blood cells. Table 4 exemplifies this by using a mean daily dietary intake of about 130 mg of DHA per day (which represents the 90th percentile of the mean usual DHA intake by males >51 years of age in the US.
# In each case, the first order kinetics evidence that a dose of 250 mg dose of D-DHA will provide for a steady-state ratio of active D-DHA based on the total DHA concentration present, as set forth in Table 4. Extrapolating backwards from the case in Table 4, a dose of at least 130 mg/day of D-DHA should provide a 1:1 ratio of active D-DHA to DHA. That ratio has been shown above to be therapeutic. And a dose of 250 mg of higher should provide a ratio of 1.9:1 or higher which provides a margin for non-compliance as decribed herein above.
# Tables 5, 6, and 7 are based on Table 2 and describe the time it takes for plasma D-DHA levels to fall below 50% or below 20% with 5 different daily doses of D-DHA in (i) patients in the 90th percentile of daily intake consuming up to 130 mg DHA (Table 5), (ii) those in the 95th percentile with a daily intake of up to 180 mg DHA (Table 6), and (iii) an example of a patient consuming more than one meal of oily fish per week with up to 260 mg daily DHA intake.
# geographic atrophy = assay: Proposed evaluation of geographic atrophy progression in patients versus placebo (safflower oil); type: in vivo, human
# Experimental: Based on the above experiment, the following provides a proposed evaluation in reduction in the rate of macular degeneration progression in a cohort of patients treated with deuterated docosahexaenoic acid ethyl ester, as compared to a cohort of test patients treated with placebo. Specifically, the treated cohort is administered 250 mg/day of deuterated docosahexaenoic acid ethyl ester or 250 mg/day of safflower oil. The patients are maintained on this dosing regimen throughout the clinical study. Periodic measurements of further geographic atrophy development are obtained.
# Dosing is continued for 6 or 12, or 18 or 24 months. At that time, the average extent of geographic atrophy progression is measured for each cohort. The efficacy of the treatment protocol is evaluated by comparing the extent of geographic atrophy progression in a treated population against a placebo population. […]
# [3] = Daily D-DHA Dose 250 mg, Background DHA/Day 130 mg (90th percentile, US males)
# [4] = Daily D-DHA Dose 250 mg, Background DHA/Day 180 mg (95th percentile, US males)
# [5] = Daily D-DHA Dose 250 mg, Background DHA/Day 260 mg (>1 meal of oily fish per week)
# [6] = Daily D-DHA Dose 500 mg, Background DHA/Day 130 mg (90th percentile, US males)
# [7] = Daily D-DHA Dose 500 mg, Background DHA/Day 180 mg (95th percentile, US males)
# [8] = Daily D-DHA Dose 500 mg, Background DHA/Day 260 mg (>1 meal of oily fish per week)
# [9] = Daily D-DHA Dose 750 mg, Background DHA/Day 130 mg (90th percentile, US males)
# [10] = Daily D-DHA Dose 750 mg, Background DHA/Day 180 mg (95th percentile, US males)
# [11] = Daily D-DHA Dose 750 mg, Background DHA/Day 260 mg (>1 meal of oily fish per week)
# [12] = Daily D-DHA Dose 1000 mg, Background DHA/Day 130 mg (90th percentile, US males)
# [13] = Daily D-DHA Dose 1000 mg, Background DHA/Day 180 mg (95th percentile, US males)
# [14] = Daily D-DHA Dose 1000 mg, Background DHA/Day 260 mg (>1 meal of oily fish per week)
# [15] = Daily D-DHA Dose 1250 mg, Background DHA/Day 130 mg (90th percentile, US males)
# [16] = Daily D-DHA Dose 1250 mg, Background DHA/Day 180 mg (95th percentile, US males)
# [17] = Daily D-DHA Dose 1250 mg, Background DHA/Day 260 mg (>1 meal of oily fish per week)
smiles,measurement,setting,value
"[2H]C([2H])(/C=C\CC)/C=C\C([2H])([2H])/C=C\C([2H])([2H])/C=C\C([2H])([2H])/C=C\C([2H])([2H])/C=C\CCC(=O)O [D-DHA, D-10-docosahexaenoic acid]",protection against geographic atrophy,"[1]; concentration of D-DHA at least 50% of the total DHA in the retina, feed 0.25% or 0.5% D-DHA",fully protected against geographic atrophy
same,protection against geographic atrophy,[1]; lower concentrations of D-DHA to DHA (below 50% of total DHA in the retina),protection was achieved but at reduced rates
same,protection / reduction in lipid peroxidation,[1]; ratio of about 1:4 of D-DHA to DHA,the protection is accorded; also recorded: sufficient to provide for therapeutic reduction in lipid peroxidation
same,protection / reduction in lipid peroxidation,[1]; ratio of at least about 1:1 D-DHA to DHA,protect is maximal; also recorded: near maximal results are obtained
same,D-DHA Substitution Rate,[2]; [3],~66%
same,D-DHA/DHA Ratio,[2]; [3],1.92 to 1
same,Time to reach 20% in Plasma (0.2:1 D-DHA to DHA Ratio) w/o taking oral D-DHA,[2]; [3],≤ 77 days
same,Time to reach ≤50% in Plasma (1:1 D-DHA to DHA Ratio) w/o taking oral D-DHA,[2]; [3],≤ 22 days
same,D-DHA Substitution Rate,[2]; [4],~58%
same,Days to reach ≤50% in Plasma (1:1 D-DHA to DHA Ratio) w/o taking oral D-DHA,[2]; [4],≤ 11 days
same,Time to reach 20% in Plasma (0.2:1 D-DHA to DHA Ratio) w/o taking oral D-DHA,[2]; [4],≤ 66 days
same,D-DHA Substitution Rate,[2]; [5],~49%
same,Time to reach 20% in Plasma (0.2:1 D-DHA to DHA Ratio) w/o taking oral D-DHA,[2]; [5],≤ 29 days
same,D-DHA Substitution Rate,[2]; [6],~79%
same,Time to reach 20% in Plasma (0.2:1 D-DHA to DHA Ratio) w/o taking oral D-DHA,[2]; [6],≤ 46 days
same,Time to reach ≤50% in Plasma (1:1 D-DHA to DHA Ratio) w/o taking oral D-DHA,[2]; [6],≤ 6 days
same,D-DHA Substitution Rate,[2]; [7],~74%
same,Days to reach ≤50% in Plasma (1:1 D-DHA to DHA Ratio) w/o taking oral D-DHA,[2]; [7],≤ 35 days
same,Time to reach 20% in Plasma (0.2:1 D-DHA to DHA Ratio) w/o taking oral D-DHA,[2]; [7],≤ 90 days
same,D-DHA Substitution Rate,[2]; [8],~66%
same,Days to reach ≤50% in Plasma (1:1 D-DHA to DHA Ratio) w/o taking oral D-DHA,[2]; [8],≤ 8 days
same,Time to reach 20% in Plasma (0.2:1 D-DHA to DHA Ratio) w/o taking oral D-DHA,[2]; [8],≤ 63 days
same,D-DHA Substitution Rate,[2]; [9],~85%
same,Time to reach 20% in Plasma (0.2:1 D-DHA to DHA Ratio) w/o taking oral D-DHA,[2]; [9],≤ 101 days
same,Time to reach ≤50% in Plasma (1:1 D-DHA to DHA Ratio) w/o taking oral D-DHA,[2]; [9],≤ 60 days
same,D-DHA Substitution Rate,[2]; [10],~81%
same,Days to reach ≤50% in Plasma (1:1 D-DHA to DHA Ratio) w/o taking oral D-DHA,[2]; [10],≤ 49 days
same,Time to reach 20% in Plasma (0.2:1 D-DHA to DHA Ratio) w/o taking oral D-DHA,[2]; [10],≤ 104 days
same,D-DHA Substitution Rate,[2]; [11],~74%
same,Days to reach ≤50% in Plasma (1:1 D-DHA to DHA Ratio) w/o taking oral D-DHA,[2]; [11],≤ 26 days
same,Time to reach 20% in Plasma (0.2:1 D-DHA to DHA Ratio) w/o taking oral D-DHA,[2]; [11],≤ 81 days
same,D-DHA Substitution Rate,[2]; [12],~88%
same,Time to reach 20% in Plasma (0.2:1 D-DHA to DHA Ratio) w/o taking oral D-DHA,[2]; [12],≤ 125 days
same,Time to reach ≤50% in Plasma (1:1 D-DHA to DHA Ratio) w/o taking oral D-DHA,[2]; [12],≤ 70 days
same,D-DHA Substitution Rate,[2]; [13],~85%
same,Days to reach ≤50% in Plasma (1:1 D-DHA to DHA Ratio) w/o taking oral D-DHA,[2]; [13],≤ 59 days
same,Time to reach 20% in Plasma (0.2:1 D-DHA to DHA Ratio) w/o taking oral D-DHA,[2]; [13],≤ 114 days
same,D-DHA Substitution Rate,[2]; [14],~79%
same,Days to reach ≤50% in Plasma (1:1 D-DHA to DHA Ratio) w/o taking oral D-DHA,[2]; [14],≤ 38 days
same,Time to reach 20% in Plasma (0.2:1 D-DHA to DHA Ratio) w/o taking oral D-DHA,[2]; [14],≤ 93 days
same,D-DHA Substitution Rate,[2]; [15],~91%
same,Time to reach 20% in Plasma (0.2:1 D-DHA to DHA Ratio) w/o taking oral D-DHA,[2]; [15],≤ 132 days
same,Time to reach ≤50% in Plasma (1:1 D-DHA to DHA Ratio) w/o taking oral D-DHA,[2]; [15],≤ 77 days
same,D-DHA Substitution Rate,[2]; [16],~87%
same,Days to reach ≤50% in Plasma (1:1 D-DHA to DHA Ratio) w/o taking oral D-DHA,[2]; [16],≤ 67 days
same,Time to reach 20% in Plasma (0.2:1 D-DHA to DHA Ratio) w/o taking oral D-DHA,[2]; [16],≤ 121 days
same,D-DHA Substitution Rate,[2]; [17],~83%
same,Days to reach ≤50% in Plasma (1:1 D-DHA to DHA Ratio) w/o taking oral D-DHA,[2]; [17],≤ 47 days
same,Time to reach 20% in Plasma (0.2:1 D-DHA to DHA Ratio) w/o taking oral D-DHA,[2]; [17],≤ 102 days
same,D-DHA substitution rate at steady-state (% of total DHA),[2]; Fixed daily D-DHA dose 250 mg,66%
same,D-DHA substitution rate at steady-state (% of total DHA),[2]; Fixed daily D-DHA dose 500 mg,79%
same,D-DHA substitution rate at steady-state (% of total DHA),[2]; Fixed daily D-DHA dose 1000 mg,88%
same,time to reach steady state concentrations of active D-DHA after start of therapy,"[2]; plasma, patient",about 14 days
same,time to reach steady state concentrations of active D-DHA after start of therapy,"[2]; red blood cell, patient",about 45 days
same,time to reach steady state concentration of active D-DHA after start of therapy,"[2]; skeletal muscle tissue, patient",about 11 weeks
same,percent reduction in geographic atrophy [(F/E)×100],"geographic atrophy; individual patient treated with 1,000 mg of D-DHA versus placebo cohort, 6, 12, 18 or 24 months",positive percent reduction in geographic atrophy that is statistically significant
[2H]C([2H])(/C=C\CC)/C=C\C([2H])([2H])/C=C\C([2H])([2H])/C=C\C([2H])([2H])/C=C\C([2H])([2H])/C=C\CCC(=O)OCC [deuterated docosahexaenoic acid ethyl ester],reduction in the rate of disease progression (geographic atrophy progression),"geographic atrophy; cohort of patients, 250 mg/day, 6 or 12 or 18 or 24 months, versus placebo (safflower oil)",statistically significant reduction in the rate of disease progression
same,percent reduction in geographic atrophy area [(C/B)×100],"geographic atrophy; cohort of treated patients versus placebo cohort, 6, 12, 18 or 24 months post start of therapy",positive percent reduction in geographic atrophy area that is statistically significant
